Where a SMILES comes first, the peptide text is derived from it. Where no end group is shown, it is not given here. The star is where a group is joined. Palmitoyl = CCCCCCCCCCCCCCCC(=O)*
Legend:
desensitized FPR2 [1] = experiment: ATP/ATPγS-induced cross-talk reactivation of desensitized FPR2 (superoxide); assay type: cell-based, human; details: desensitized by WKYMVM (40 nM) or F2Pal10 (500 nM); ATPγS 50 µM
Experimental: (§1) Human peripheral blood neutrophils were isolated from buffy coats from healthy blood donors using dextran sedimentation and Ficoll-Paque gradient centrifugation as described. The remaining erythrocytes were disrupted by hypotonic lysis, the neutrophils were washed twice, resuspended in KRG, and stored on melting ice until use. This isolation procedure permits cells to be purified with minimal granule mobilization.
(§2) The NADPH-oxidase activity was determined using isoluminol-enhanced chemiluminescence (CL), [27]. The CL activity was measured in a six-channel Biolumat LB 9505 (Berthold Co., Wildbad, Germany), using disposable 4-ml polypropylene tubes with a 900 µl reaction mixture containing 10^5 cells, isoluminol (2×10^−5 M) and HRP (2 U). The tubes were equilibrated in the Biolumat for 5 min at 37°C, after which the stimulus (100 µl) was added and the light emission was recorded continuously. […]
Figure 3 PAF- or ATP-stimulation induces reactivation of desensitized FPR2. […] The FPR2 specific inhibitor PBP10 (1 µM) was added 1 min prior to PAF stimulation (dashed line) and the release of superoxide anions was recorded continuously. […] The release of superoxide anions was recorded continuously. […]

P2Y2R = experiment: Direct NADPH-oxidase activation in naive neutrophils by P2Y2R agonists; assay type: cell-based, human
Experimental: as §1
as §2, with “continuously. Receptor desensitized cells were defined as naïve (non-desensitized) cells that had first been stimulated with a receptor specific agonist and returned to baseline after the resulting release of superoxide before a second stimulation. When reactivation experiments were performed with antagonists, the antagonists were added to the CL reaction mixture 1 min before the second stimulation.” for “continuously.”

FPR2 [2] = target: T1, FPR2 (Homo sapiens, UniProt P25090); experiment: Neutrophil NADPH-oxidase activity (superoxide release), direct activation of naive cells; assay type: cell-based; details: read-out: maximum response relative to WKYMVM, superoxide peak, naive human neutrophils; % of response induced by WKYMVM
T1 construct: Human peripheral blood neutrophils were isolated from buffy coats from healthy blood donors; endogenous in cells; host or cells: primary human peripheral blood neutrophils from buffy coats of healthy donors
T1 sequence (P25090 1-351): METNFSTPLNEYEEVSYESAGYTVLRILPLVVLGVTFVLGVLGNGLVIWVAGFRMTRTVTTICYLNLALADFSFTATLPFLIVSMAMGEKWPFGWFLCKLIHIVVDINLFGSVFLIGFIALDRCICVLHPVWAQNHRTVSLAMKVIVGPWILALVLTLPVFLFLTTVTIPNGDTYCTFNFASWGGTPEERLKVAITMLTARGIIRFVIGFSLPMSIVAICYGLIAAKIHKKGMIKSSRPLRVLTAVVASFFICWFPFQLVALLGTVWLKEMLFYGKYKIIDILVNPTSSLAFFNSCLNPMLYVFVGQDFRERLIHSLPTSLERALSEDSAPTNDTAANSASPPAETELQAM
Experimental: as §1
(§3) The NADPH-oxidase activity was determined using isoluminol-enhanced chemiluminescence (CL), [27]. The CL activity was measured in a six-channel Biolumat LB 9505 (Berthold Co., Wildbad, Germany), using disposable 4-ml polypropylene tubes with a 900 µl reaction mixture containing 10^5 cells, isoluminol (2×10^−5 M) and HRP (2 U). The tubes were equilibrated in the Biolumat for 5 min at 37°C, after which the stimulus (100 µl) was added and the light emission was recorded continuously. Receptor desensitized cells were defined as naïve (non-desensitized) cells that had first been stimulated with a receptor specific agonist and returned to baseline after the resulting release of superoxide before a second stimulation. When reactivation experiments were performed with antagonists, the antagonists were added to the CL reaction mixture 1 min before the second stimulation. For studies with signaling inhibitors, cells were incubated with inhibitors at 37°C for 15 min before agonist addition. Control cells received no treatment but were incubated under the same conditions.
Data analysis was performed using GraphPad Prism 6.0 (Graphpad Software, San Diego, CA, USA).
Representative experiments out of more than five are shown and an arrow indicates the time point for agonist addition. Abscissa: Time of study (min); ordinate: Superoxide production (Mcpm).

neutrophils [3] = experiment: Inhibition of FPR2 agonist-induced superoxide by pertussis toxin or kinase inhibitors; assay type: cell-based, human; details: for inhibition of F2Pal10- and WKYMVM-induced superoxide by kinase inhibitor: inhibitors 20 nM to 1 µM (1 µM shown), 15 min at 37°C, n = 3
Experimental: as §1, §3
A. Primary human neutrophils were treated with pertussis toxin (PTX, 500 ng/ml final concentration) and samples were withdrawn at indicated time points. […] As a control, the PMA response (5×10^−8 M final concentration) from control cells (120 min incubation without PTX, solid line in the inset) or treated with PTX for 120 min (dashed line in the inset) is shown. Superoxide production (peak values) from pertussis toxin treated neutrophils was compared to that from non-treated control cells. A representative experiment out of more than five is shown. B and C. Fluo-3-AM/FuraRED labeled neutrophils were incubated without any additive (solid lines) or with EGTA (2 mM; dotted lines). […] Traces of representative calcium responses are shown and at least three experiments have been performed. Abscissa, time of study (sec); ordinate, fluorescence (arbitrary unit). D. Primary human neutrophils were incubated with different pharmacological kinase inhibitors (1 µM final concentration) for 15 min at 37°C. Control cells were incubated at the same condition but received no inhibitors. […] Data are presented as % inhibition compared to the control response (peak values of superoxide production were used, mean±SEM, n = 3).
The effects of these inhibitors were determined using different concentrations ranging from 20 nM to 1 µM.

desensitized FPR2 [4] = experiment: PAF-induced cross-talk reactivation of desensitized FPR2 (superoxide); assay type: cell-based, human; details: PAF 100 nM; for inhibition of PAF response in FPR2-desensitized neutrophils: inhibitor before PAF, calyculin A 60 nM 10 min at 37°C, PBP10 1 µM, WEB2086 data not shown
Experimental: as §1, §3
Figure 3 PAF- or ATP-stimulation induces reactivation of desensitized FPR2. […] A representative experiment is shown and the time point for addition of FPR2 agonists is indicated by the first arrow, the time point for PAF stimulation (100 nM final concentration) with the second arrow. The control PAF response induced in naïve (non-desensitized) neutrophils is shown for comparison (dotted line). Abscissa: Time of study (min); ordinate: Superoxide production (Mcpm). B. Naïve neutrophils were first desensitized with F2Pal10 (F2Pal10des., 500 nM final concentration) and subsequently stimulated with PAF (100 nM final concentration; time point for PAF addition is indicated by an arrow). The FPR2 specific inhibitor PBP10 (1 µM) was added 1 min prior to PAF stimulation (dashed line) and the release of superoxide anions was recorded continuously. The PAF responses induced in naïve cells (solid line), as well as in F2Pal10-desensitized cells receiving no PBP10 (dotted line), are shown for comparison. Abscissa: Time of study (min); ordinate: Superoxide production (Mcpm). C. Effect of calyculin A on receptor cross-talk induced FPR2 reactivation. Cells desensitized with F2Pal10 (F2Pal10des.) were incubated with the phosphatase inhibitor calyculin A (60 nM; solid line) or buffer as control (dashed line) for 10 min at 37°C prior to PAF stimulation (100 nM). The release of superoxide anions was recorded continuously. Abscissa: Time of study (min); ordinate: Superoxide production (Mcpm). […] Abscissa: Time of study (min); ordinate: Superoxide production (Mcpm). […] The results are given as peak values of superoxide production following addition of ATPγS (mean+SEM; n = 3).
Figure 4 More pronounced reactivation was induced by PAF in neutrophils desensitized by the pepducin F2Pal10. […] The results are given as peak values of superoxide production from three separate experiments for the first stimulation with FPR2 agonists (mean+SEM, n = 3). […]

neutrophils [5] = experiment: Priming of FPR2 agonist-induced superoxide response; assay type: cell-based, human; details: for priming effect on F2Pal10-induced superoxide / priming effect on WKYMVM-induced superoxide: versus non-primed cells, n = 3; for priming effect on WKYMVM-induced superoxide: WKYMVM 50 nM
Experimental: as §1, §3
A. A representative experiment of an F2Pal10 induced response in control (solid line) and latrunculin A treated neutrophils (dashed line) is shown. The time point for addition of F2Pal10 is indicated by an arrow. Abscissa: Time of study (min); ordinate: Superoxide production (Mcpm). […] A non-priming cut-off line (fold increase = 1) is included as a horizontal broken line in the figure.

FPR2 [6] = target: T1, FPR2; experiment: Inhibition of F2Pal10-induced superoxide release by receptor inhibitors/antagonists; assay type: cell-based; details: F2Pal10 500 nM; PBP10 1 µM, cyclosporin H 1 µM; representative of more than five
Experimental: as §1, §2
Figure 1 The F2Pal10 pepducin specifically activates FPR2. A. Primary human neutrophils were activated by F2Pal10 (500 nM) in the absence (solid line) or presence of the receptor specific inhibitor PBP10 (FPR2 specific inhibitor; 1 µM final concentration, dashed line) or the FPR1 antagonist cyclosporin H (CysH; 1 µM final concentration, dotted line) and the release of superoxide anions was recorded continuously. […] The release of superoxide anions was recorded continuously. […]

[7] = target: T2, formyl peptide receptor 2 (FPR2) (human (endogenous in neutrophils), UniProt P25090 1-351); experiment: cell-based or functional assay
T2 sequence (looked up): T1 sequence (P25090 1-351)

With `Nc1ncnc2c1ncn2[C@@H]1O[C@H](COP(=O)(O)OP(=O)(O)OP(=O)(O)O)[C@@H](O)[C@H]1O` [ATP] the “superoxide release in FPR2-desensitized cells by P2Y2R agonist” value (desensitized FPR2 [1]) was “induced a release of superoxide anions in FPR2 desensitized cells” and the “direct activation of NADPH-oxidase in naive neutrophils” value (P2Y2R) was “can not directly activate the NADPH-oxidase in naïve neutrophils”.

For `Nc1ncnc2c1ncn2[C@@H]1O[C@H](CO[P@](=O)(O)O[P@](=O)(O)O[P@@](=O)(O)S)[C@@H](O)[C@H]1O` [ATPγS], the “superoxide release in FPR2-desensitized cells by P2Y2R agonist” value (desensitized FPR2 [1]) was “induced a release of superoxide anions in FPR2 desensitized cells” and the “direct activation of NADPH-oxidase in naive neutrophils” value (P2Y2R) was “can not directly activate the NADPH-oxidase in naïve neutrophils”.

In the case of `CCCCCCCCCCCCCCCC(=O)N[C@@H](CCCCN)C(=O)N[C@H](C(=O)N[C@@H](Cc1c[nH]cn1)C(=O)N[C@@H](CCCCN)C(=O)N[C@@H](CCCCN)C(=O)NCC(=O)N[C@@H](CCSC)C(=O)N[C@H](C(=O)N[C@@H](CCCCN)C(=O)N[C@@H](CO)C(=O)O)[C@@H](C)CC)[C@@H](C)CC` [F2Pal10] (Palmitoyl-KIHKKGMIKS-OH), the Emax (FPR2 [2]) is reported as 70%.

In the case of `O=c1c(-c2ccc(O)cc2)coc2cc(O)cc(O)c12` [Genistein], the “inhibition of F2Pal10- and WKYMVM-induced superoxide by kinase inhibitor” value (shortened to “inhibition … by kinase inhibitor”) (neutrophils [3]; WKYMVM 50 nM, F2Pal10 500 nM) is reported as “Very similar degrees of inhibition”.

`CCCCCCCCCCCCCC(=O)O[C@@H]1[C@@H](C)[C@@]2(O)[C@@H](C=C(CO)C[C@]3(O)C(=O)C(C)=C[C@@H]23)[C@@H]2C(C)(C)[C@]12OC(C)=O` [PMA] was tested, and the “PMA responsiveness of pertussis toxin treated cells” value (neutrophils [3]; PMA 5×10^−8 M, PTX 120 min) was “retained their responsiveness to PMA”.

For `CC(C)(C)n1nc(-c2ccc(Cl)cc2)c2c(N)ncnc21` [PP2], the “inhibition … by kinase inhibitor” value (neutrophils [3]; WKYMVM 50 nM, F2Pal10 500 nM) was “Very similar degrees of inhibition”.

`C[S+]([O-])c1ccc(-c2nc(-c3ccncc3)c(-c3ccc(F)cc3)[nH]2)cc1` (stereo not shown) [SB203580] was tested, and the “inhibition … by kinase inhibitor” value (neutrophils [3]; WKYMVM 50 nM, F2Pal10 500 nM) was “Very similar degrees of inhibition”.

For `Cc1nnc2n1-c1sc(CCC(=O)N3CCOCC3)cc1C(c1ccccc1Cl)=NC2` [WEB2086], the “inhibition of PAF response in FPR2-desensitized neutrophils” value (desensitized FPR2 [4]) was “inhibited”.

For `COC[C@H]1OC(=O)c2coc3c2[C@@]1(C)C1=C(C3=O)[C@@H]2CCC(=O)[C@@]2(C)C[C@H]1OC(C)=O` [Wortmannin], the “inhibition … by kinase inhibitor” value (neutrophils [3]; WKYMVM 50 nM, F2Pal10 500 nM) was “Very similar degrees of inhibition”.

`COC[C@@H]([C@H](O)[C@H](O)C(=O)NCC[C@H](C)c1nc(/C=C/C[C@@H]2O[C@]3(C[C@@H](O)[C@@H]2C)O[C@H]([C@H](C[C@H](O)[C@H](C)[C@H](O)[C@H](C)/C=C(C)/C(C)=C/C=C/C(C)=C\C#N)OC)[C@H](OP(=O)(O)O)C3(C)C)co1)N(C)C` [calyculin A] was tested, and the “inhibition of PAF response in FPR2-desensitized neutrophils” value (desensitized FPR2 [4]) was “inhibited”, the “priming effect on F2Pal10-induced superoxide” value (neutrophils [5]; F2Pal10 500 nM) was “Very similar priming effects” and the “priming effect on WKYMVM-induced superoxide” value (neutrophils [5]) was “significantly more superoxide than non-primed control cells”.

In the case of `C/C1=C/C(=O)O[C@@H]2C[C@@H](CC[C@H](C)/C=C\C=C\CC1)O[C@@](O)([C@@H]1CSC(=O)N1)C2` [latrunculin A], the “effect on neutrophil response to F2Pal10” value (neutrophils [5]; F2Pal10 500 nM, latrunculin A treated) is reported as “dramatically increased and prolonged”.

With TNFα the “priming effect on F2Pal10-induced superoxide” value (neutrophils [5]; F2Pal10 500 nM) was “Very similar priming effects” and the “priming effect on WKYMVM-induced superoxide” value (neutrophils [5]) was “significantly more superoxide than non-primed control cells”.

With cyclosporin H the “inhibition of F2Pal10-induced superoxide response” value (FPR2 [6]) was “not affected”.

With pertussis toxin the “inhibition of F2Pal10- and WKYMVM-induced oxidase response by pertussis toxin” value (neutrophils [3]; PTX 500 ng/ml, 90 and 120 min, WKYMVM 50 nM, F2Pal10 500 nM) was “largely inhibited”.

In the case of platelet activating factor [PAF], the “reactivation of desensitized FPR2 by PAF” value (desensitized FPR2 [4]; FPR2-desensitized neutrophils) is reported as “reactivates desensitized FPR2 to an actively signaling state”.

In the case of Palmitoyl-KIHKKGMIKS [F2Pal10 pepducin], the “maximum superoxide response of human neutrophils, relative to that induced by WKYMVM” value [7] is reported as 70% and the “superoxide release (NADPH-oxidase activity, isoluminol chemiluminescence) from human neutrophils, F2Pal10 50-2000 nM, EC50” value [7] is reported as ~300 nM.
